These results are taken from the PolyMetriX glass transition set.

As for `*C(=O)OCC(C)(C)CSCC(C)(C)COC(=O)C1(C)CNC(*)(C)CN1` (repeat unit), the glass transition temperature was 40.00 °C. To `*CC(=O)NCCCCCCNC(=O)CCc1ccc(O*)cc1` (repeat unit) belongs 72.00 °C; to `*CC(=O)Nc1ccc(Cc2ccc(NC(=O)CN3C(=O)c4ccc(C(=O)c5ccc6c(c5)C(=O)N(*)C6=O)cc4C3=O)cc2)cc1` (repeat unit), 233.00 °C; to `*CC(=O)Nc1ccc(NC(=O)c2ccc3c(c2)C(=O)N(*)C3=O)cc1` (repeat unit), 292.00 °C. Then `*CC(=O)Nc1ccc(Oc2ccc(-c3ccc(Oc4ccc(NC(=O)CN5C(=O)c6ccc(C(c7ccc8c(c7)C(=O)N(*)C8=O)(C(F)(F)F)C(F)(F)F)cc6C5=O)cc4)cc3)cc2)cc1` (repeat unit), with 245.00 °C. The compound `*CC(=O)Nc1ccc(Oc2ccc(NC(=O)CN3C(=O)c4ccc(C(=O)c5ccc6c(c5)C(=O)N(*)C6=O)cc4C3=O)cc2)cc1` (repeat unit) registered a glass transition temperature of 235.00 °C. Then `*CC(=O)Nc1ccc(Oc2ccc(NC(=O)c3ccc4c(c3)C(=O)N(*)C4=O)cc2)cc1` (repeat unit), with 262.00 °C; and `*CC(=O)Nc1ccc(Oc2ccc(Oc3ccc(NC(=O)c4ccc5c(c4)C(=O)N(*)C5=O)cc3)cc2)cc1` (repeat unit), with 242.00 °C. To `*CC(=O)Nc1ccc(Oc2cccc(Oc3ccc(NC(=O)c4ccc5c(c4)C(=O)N(*)C5=O)cc3)c2)cc1` (repeat unit) belongs 220.00 °C; to `*CC(C)(C)C(=O)O*` (repeat unit), -12.00 °C; to `*CC(C)(C)COC(=O)C1CCC(C(=O)O*)CC1` (repeat unit), 30.00 °C.

`*CC(C)(C)COC(=O)CCCCC(=O)O*` (repeat unit) showed a glass transition temperature of -31.5 °C. Then `*CC(C)(C)COC(=O)Cc1ccc(C(=O)O*)cc1` (repeat unit), with 33.00 °C. To `*CC(C)(COC(=O)NCCCCCCNC(=O)O*)C(=O)O` (repeat unit) belongs -26.00 °C; to `*CC(C)N1C(=O)C2C3C=CC(C4C(=O)N(*)C(=O)C34)C2C1=O` (repeat unit), 212.00 °C.

The compound `*CC(CC)(CC)C(=O)O*` (repeat unit) returned a glass transition temperature of 60.00 °C. To `*CC(CCCCCCCCCCCC)COC(=O)NC(=O)c1ccc(C(=O)NC(=O)O*)cc1` (repeat unit) belongs 75.00 °C. Then `*CC(CCCCCCOc1ccc(/N=N/c2ccc(C)cc2)cc1)COC(=O)CCCCC(=O)O*` (repeat unit), with 29.00 °C; and `*CC(CCCCCCOc1ccc(/N=N/c2ccc(OC)cc2)cc1)COC(=O)CCCCC(=O)O*` (repeat unit), with 22.00 °C; and `*CC(O)CN(*)c1ccc(/N=N/c2ccc(Cl)cc2)cc1` (repeat unit), with 160.00 °C. Regarding `*CCC(=O)NCCCCCCNC(=O)CCS*` (repeat unit), the glass transition temperature worked out at 27.00 °C.

The compound `*CCC(=O)NCc1c(C)c(C)c(CNC(=O)CCO*)c(C)c1C` (repeat unit) had a glass transition temperature of 191.00 °C.

Regarding `*CCC(C)CCC(=O)S*` (repeat unit), the glass transition temperature was -50.00 °C. Then `*CCCCCCCCCCCCCCCCCCNC(=O)CCc1ccc(CCC(=O)N*)cc1` (repeat unit), with 65.00 °C; and `*CCCCCCNC(=O)CCP(=O)(CCC(=O)N*)c1ccccc1` (repeat unit), with 29.00 °C; and `*CCCCCCNC(=O)CCP(=S)(CCC(=O)N*)c1ccccc1` (repeat unit), with 43.00 °C.

With `*CCCCCCNC(=O)CCc1ccc(CC(=O)N*)cc1` (repeat unit), the glass transition temperature turned out to be 87.00 °C. Then `*CCCCCCNC(=O)CCc1ccc(CCC(=O)N*)cc1` (repeat unit), with 85.00 °C.

On to `*CCCS*` (repeat unit), for which the glass transition temperature was -53.50 °C. As to `*CCSCc1ccc(Cc2ccc(CSCCOC(=O)CCSCc3ccc(Cc4ccc(CSCCC(=O)O*)cc4)cc3)cc2)cc1` (repeat unit), the glass transition temperature amounted to 12.00 °C. Then `*CCc1ccc(*)c(Br)c1` (repeat unit), with 80.00 °C; and `*CCc1ccc(*)c(C#N)c1` (repeat unit), with 90.00 °C; and `*CCc1ccc(*)c(CC)c1` (repeat unit), with 25.00 °C. To `*CCc1ccc(*)c(CCCC)c1` (repeat unit) belongs 20.00 °C; to `*Cc1c(C)c(C)c(CNC(=O)CCCC(=O)N*)c(C)c1C` (repeat unit), 192.00 °C; to `*Cc1cc(C)c(CNC(=O)CCCCC(=O)N*)cc1C` (repeat unit), 70.00 °C.

`*OC(=O)OCC1OC(C)(C)OC1COC(=O)OC1COC2C(*)COC12` (repeat unit) yielded a glass transition temperature of 95.50 °C. In turn, `*OC(COC(=O)C12CC3CC(CC(C(*)=O)(C3)C1)C2)COc1ccc(/N=N/c2ccc(C#N)cc2)cc1` (repeat unit) had a glass transition temperature of 105.00 °C. To `*OC(COC(=O)C1CCC(C(*)=O)CC1)COc1ccc(/N=N/c2ccc(C#N)cc2)cc1` (repeat unit) belongs 106.00 °C; to `*OC(COCCOC)COC(*)=O` (repeat unit), -50.00 °C; to `*O[Si](C)(C)CC[Si](*)(C)O[Si](C)(C)C` (repeat unit), -89.00 °C.

Compound `*O[Si](C)(C)COC(=O)CCCCCCCCC(=O)Oc1ccc(S(=O)(=O)c2ccc(Oc3ccc(/C=C4\CCC/C(=C\c5ccc(Oc6ccc(S(=O)(=O)c7ccc(OC(=O)CCCCCCCCC(=O)OC[Si](*)(C)C)cc7)cc6)cc5)C4=O)cc3)cc2)cc1` (repeat unit) came in with a glass transition temperature of 80.00 °C. To `*Oc1ccc(C(=O)CNc2ccc(S(=O)(=O)c3ccc(NCC(=O)c4ccc(*)cc4)cc3)cc2)cc1` (repeat unit) belongs 247.00 °C. Then `*Oc1ccc(CC(NC(=O)CCc2ccc(OC(=O)CCCCC(*)=O)cc2)C(=O)OCc2ccccc2)cc1` (repeat unit), with 54.50 °C; and `*Oc1ccc(CC(NC(=O)CCc2ccc(OC(=O)COCC(*)=O)cc2)C(=O)OCc2ccccc2)cc1` (repeat unit), with 76.00 °C.

In turn, `*Oc1ccc(NC(=O)c2cc(NC(=O)CCN3C(=O)c4ccccc4C3=O)cc(C(=O)Nc3ccc(*)cc3)c2)cc1` (repeat unit) came in with a glass transition temperature of 240.00 °C. Then `*Oc1ccc(NCC(=O)c2ccc(Sc3ccc(C(=O)CNc4ccc(*)cc4)cc3)cc2)cc1` (repeat unit), with 208.00 °C; and `*Oc1ccc(Oc2ccc(NC(=O)c3cc(NC(=O)c4ccc(OC(C)=O)cc4)cc(C(=O)Nc4ccc(*)cc4)c3)cc2)cc1` (repeat unit), with 251.00 °C; and `*Oc1cccc(NC(=O)c2cc(NC(=O)c3ccc(OC(C)=O)cc3)cc(C(=O)Nc3ccc(*)cc3)c2)c1` (repeat unit), with 251.00 °C.
